Source: ChEMBL document CHEMBL3352625, “Development of novel neurokinin 3 receptor (NK3R) selective agonists with resistance to proteolytic degradation” (J Med Chem, 2014)
The source made the active and inactive calls. The rule behind the calls is not given here. Where a SMILES comes first, the peptide text is derived from it. [ ]: non-standard residue; d: D form. NMeF = CN[C@@H](Cc1ccccc1)C(=O)O

How the values were obtained:
Neuromedin-K receptor [1] = target: T1, Neuromedin-K receptor (Homo sapiens, UniProt P29371); experiment: Displacement of [125I]His3, MePhe7 from human NK3R expressed in CHO cell membranes by scintillation counting
T1 sequence (P29371 whole entry): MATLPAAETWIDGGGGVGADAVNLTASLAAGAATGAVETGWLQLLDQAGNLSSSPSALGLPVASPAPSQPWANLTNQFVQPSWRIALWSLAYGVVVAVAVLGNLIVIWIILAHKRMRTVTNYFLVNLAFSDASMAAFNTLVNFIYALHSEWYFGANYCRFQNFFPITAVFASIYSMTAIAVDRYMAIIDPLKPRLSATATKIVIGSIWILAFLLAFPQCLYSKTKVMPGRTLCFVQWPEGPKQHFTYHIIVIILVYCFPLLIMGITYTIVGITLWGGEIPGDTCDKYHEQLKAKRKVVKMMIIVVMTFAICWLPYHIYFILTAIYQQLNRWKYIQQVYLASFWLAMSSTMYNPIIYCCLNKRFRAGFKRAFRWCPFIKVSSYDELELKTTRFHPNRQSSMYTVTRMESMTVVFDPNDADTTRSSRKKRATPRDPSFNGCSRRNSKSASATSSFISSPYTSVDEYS

Neuromedin-K receptor [2] = target: T1, Neuromedin-K receptor; experiment: (§1) Agonist activity at human NK3R expressed in CHO cells assessed as induction of Ca2+ influx […]; type: functional, cell-based
[3] = target: Substance-P receptor (Homo sapiens) (UniProt P25103); experiment: Displacement of [125I]-BH-SP from human NK1R expressed in CHO cell membranes at 10 uM by scintillation counting
[4] = target: T2, Substance-K receptor (Homo sapiens) (UniProt P21452); experiment: Displacement of [125I]-NKA from […] expressed in CHO cell membranes at 10 uM by scintillation counting
T2 sequence (whole entry): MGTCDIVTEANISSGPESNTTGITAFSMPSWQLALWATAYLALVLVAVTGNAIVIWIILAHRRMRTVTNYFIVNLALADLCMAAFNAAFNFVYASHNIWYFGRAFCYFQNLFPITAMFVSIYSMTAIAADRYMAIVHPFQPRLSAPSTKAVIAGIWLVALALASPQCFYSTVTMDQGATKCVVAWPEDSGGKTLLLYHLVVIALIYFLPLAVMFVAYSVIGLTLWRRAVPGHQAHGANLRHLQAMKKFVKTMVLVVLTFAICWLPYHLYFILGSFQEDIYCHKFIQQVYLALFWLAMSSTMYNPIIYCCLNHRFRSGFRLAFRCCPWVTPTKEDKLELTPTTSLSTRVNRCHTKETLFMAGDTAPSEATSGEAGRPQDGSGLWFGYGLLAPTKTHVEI

Serum [5] = experiment: Drug metabolism in cattle serum assessed as peptide H-His-Asp-Phe-Phe-MePhe-Gly-Leu-Met-NH2 formation by HPLC analysis; type: ADME, cell-free, Bos taurus
Serum [6] = experiment: Drug metabolism in cattle serum assessed as peptide H-Asp-Phe-Phe-MePhe-Gly-Leu-Met-NH2 formation by HPLC analysis; type: ADME, cell-free, Bos taurus
Serum [7] = experiment: Drug metabolism in cattle serum assessed as peptide H-Phe-MePhe-Gly-Leu-Met-NH2 formation by HPLC analysis; type: ADME, cell-free, Bos taurus
[8] = Drug metabolism in pig serum assessed as peptide H-His-Asp-Phe-Phe-MePhe-Gly-Leu-Met-NH2 formation by HPLC analysis; type: ADME, cell-free, Sus scrofa
[9] = Drug metabolism in pig serum assessed as peptide H-Asp-Phe-Phe-MePhe-Gly-Leu-Met-NH2 formation by HPLC analysis; type: ADME, cell-free, Sus scrofa
[10] = Drug metabolism in pig serum assessed as peptide H-Phe-MePhe-Gly-Leu-Met-NH2 formation by HPLC analysis; type: ADME, cell-free, Sus scrofa
[11] = Drug metabolism in goat serum assessed as peptide H-His-Asp-Phe-Phe-MePhe-Gly-Leu-Met-NH2 formation by HPLC analysis; type: ADME, cell-free, Capra hircus
[12] = Drug metabolism in goat serum assessed as peptide H-Asp-Phe-Phe-MePhe-Gly-Leu-Met-NH2 formation by HPLC analysis; type: ADME, cell-free, Capra hircus
[13] = Drug metabolism in goat serum assessed as peptide H-Phe-MePhe-Gly-Leu-Met-NH2 formation by HPLC analysis; type: ADME, cell-free, Capra hircus
Serum [14] = experiment: Drug metabolism in rat serum assessed as H-His-Asp-Phe-Phe-MePhe-Gly-Leu-Met-NH2 2 formation by HPLC analysis; type: ADME, cell-free
Serum [15] = experiment: Drug metabolism in rat serum assessed as peptide H-Asp-Phe-Phe-MePhe-Gly-Leu-Met-NH2 formation by HPLC analysis; type: ADME, cell-free
Serum [16] = experiment: Drug metabolism in rat serum assessed as peptide H-Phe-MePhe-Gly-Leu-Met-NH2 formation by HPLC analysis; type: ADME, cell-free
Serum [17] = experiment: Drug metabolism in rat serum assessed as peptide H-Phe-MePhe-Gly-Leu-Met-OH formation by HPLC analysis; type: ADME, cell-free
[18] = Drug metabolism in pig hypothalamic extract assessed as peptide H-Phe-MePhe-Gly-Leu-Met-NH2 formation by HPLC analysis; type: ADME, Sus scrofa, Hypothalamus
[19] = Drug metabolism in pig hypothalamic extract assessed as peptide H-Phe-MePhe-Gly-Leu-Met-OH formation by HPLC analysis; type: ADME, Sus scrofa, Hypothalamus
[20] = Drug metabolism in pig hypothalamic extract assessed as peptide H-Phe-MePhe-Gly-OH formation by HPLC analysis; type: ADME, Sus scrofa, Hypothalamus
[21] = Drug metabolism in pig hypothalamic extract assessed as peptide H-Met-His-Asp-Phe-Phe-MePhe-Gly-Leu-Met-NH2 formation by HPLC analysis; type: ADME, Sus scrofa, Hypothalamus
[22] = Drug metabolism in pig hypothalamic extract assessed as peptide H-His-Asp-Phe-Phe-MePhe-Gly-Leu-Met-NH2 formation by HPLC analysis; type: ADME, Sus scrofa, Hypothalamus
[23] = Drug metabolism in pig hypothalamic extract assessed as peptide H-Asp-Phe-Phe-MePhe-Gly-Leu-Met-NH2 formation by HPLC analysis; type: ADME, Sus scrofa, Hypothalamus
[24] = Drug metabolism in pig hypothalamic extract assessed as peptide H-Phe-Phe-MePhe-Gly-Leu-Met-NH2 formation by HPLC analysis; type: ADME, Sus scrofa, Hypothalamus
[25] = target: T3, Neuromedin-K receptor (Homo sapiens) (UniProt P29371); experiment: as §1; type: functional, cell-based
T3 sequence (whole entry): T1 sequence (P29371 whole entry)

Sequence of Substance-P receptor (Homo sapiens) (P25103 whole entry): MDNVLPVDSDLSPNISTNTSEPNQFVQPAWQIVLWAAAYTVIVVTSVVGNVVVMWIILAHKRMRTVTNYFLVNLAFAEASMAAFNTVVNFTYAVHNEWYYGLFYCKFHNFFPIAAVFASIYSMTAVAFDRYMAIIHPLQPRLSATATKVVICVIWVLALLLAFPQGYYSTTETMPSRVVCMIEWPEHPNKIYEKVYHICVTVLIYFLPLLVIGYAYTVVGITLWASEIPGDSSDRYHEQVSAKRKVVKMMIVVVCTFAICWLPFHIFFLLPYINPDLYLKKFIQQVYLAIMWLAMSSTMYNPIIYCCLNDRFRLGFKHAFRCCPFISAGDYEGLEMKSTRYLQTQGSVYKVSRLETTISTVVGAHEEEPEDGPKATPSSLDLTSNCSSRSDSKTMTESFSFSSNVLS

## CSCC[C@H](NC(=O)[C@H](CC(C)C)NC(=O)CNC(=O)[C@H](Cc1ccccc1)N(C)C(=O)[C@H](Cc1ccccc1)NC(=O)[C@H](Cc1ccccc1)NC(=O)[C@@H](N)CC(=O)O)C(N)=O (H-DFF[NMeF]GLM-NH2)
Neuromedin-K receptor [1]
  IC50: 59 nM
Neuromedin-K receptor [2]
  EC50: 91 nM
[3]
  inhibition: 15%
[4]
  inhibition: 73%

## CSCC[C@H](NC(=O)[C@H](CC(C)C)NC(=O)CNC(=O)[C@H](Cc1ccccc1)N(C)C(=O)[C@H](Cc1ccccc1)NC(=O)[C@H](Cc1ccccc1)NC(=O)[C@H](CC(=O)O)NC(=O)[C@H](Cc1cnc[nH]1)NC(=O)[C@H](CCSC)NC(=O)[C@@H](N)CC(=O)O)C(N)=O (H-DMHDFF[NMeF]GLM-NH2)
Neuromedin-K receptor [1]
  IC50: 12 nM
Neuromedin-K receptor [2]
  EC50: 64 nM
Serum [5]
  Drug metabolism: metabolite_detected
Serum [6]
  Drug metabolism: metabolite_detected
Serum [7]
  Drug metabolism: metabolite_detected
[8]
  Drug metabolism: metabolite_detected
[9]
  Drug metabolism: metabolite_detected
[10]
  Drug metabolism: metabolite_detected
[11]
  Drug metabolism: metabolite_detected
[12]
  Drug metabolism: metabolite_detected
[13]
  Drug metabolism: metabolite_detected
Serum [14]
  Drug metabolism: metabolite_detected
Serum [15]
  Drug metabolism: metabolite_detected
Serum [16]
  Drug metabolism: metabolite_detected
Serum [17]
  Drug metabolism: metabolite_detected
[18]
  Drug metabolism: metabolite_detected
[19]
  Drug metabolism: metabolite_detected
[20]
  Drug metabolism: metabolite_detected
[21]
  Drug metabolism: metabolite_notdetected
[22]
  Drug metabolism: metabolite_notdetected
[23]
  Drug metabolism: metabolite_notdetected
[24]
  Drug metabolism: metabolite_notdetected

## CSCC[C@H](NC(=O)[C@H](CC(C)C)NC(=O)CNC(=O)[C@H](Cc1ccccc1)N(C)C(=O)[C@H](Cc1ccccc1)NC(=O)[C@@H](N)Cc1ccccc1)C(N)=O (H-FF[NMeF]GLM-NH2)
Neuromedin-K receptor [1]
  IC50: 2900 nM
Neuromedin-K receptor [2]
  EC50: 240 nM
[3]
  inhibition: 49%
[4]
  inhibition: 84%

## CSCC[C@H](NC(=O)[C@H](CC(C)C)NC(=O)CNC(=O)[C@H](Cc1ccccc1)N(C)C(=O)[C@@H](N)Cc1ccccc1)C(N)=O (H-F[NMeF]GLM-NH2)
Neuromedin-K receptor [1]
  IC50: 2300 nM
Neuromedin-K receptor [2]
  EC50: 350 nM
[3]
  inhibition: 70%
[4]
  inhibition: 77%

## CSCC[C@H](NC(=O)[C@H](CC(C)C)NC(=O)CNC(=O)[C@H](Cc1ccccc1)N(C)C(=O)[C@@H](N)Cc1ccccc1)C(=O)O (H-F[NMeF]GLM-OH)
Neuromedin-K receptor [2]
  EC50: > 100000 nM

## CSCC[C@H](NC(=O)[C@H](CC(C)C)NC(=O)CNC(=O)[C@H](Cc1ccccc1)N(C)C(=O)[C@H](Cc1ccccc1)NC(=O)[C@H](Cc1ccccc1)NC(=O)[C@H](CC(=O)O)NC(=O)[C@@H](N)Cc1cnc[nH]1)C(N)=O (H-HDFF[NMeF]GLM-NH2)
Neuromedin-K receptor [1]
  IC50: 43 nM
Neuromedin-K receptor [2]
  EC50: 280 nM
[3]
  inhibition: 18%
[4]
  inhibition: 74%

## CSCC[C@H](NC(=O)[C@@H](N)CC(C)C)C(N)=O (H-Leu-Met-NH2)
[25]
  Activity: inactive
